# Calls of active or inactive are those of the source. No cut-off for these calls is given here.
# Experiments:
# [1] = target: Amyloid-beta precursor protein (Homo sapiens) (UniProt P05067); assay: Inhibition of amyloid beta (unknown origin) aggregation at 100 uM relative to control
# [2] = target: Albumin (Homo sapiens, UniProt P02768); assay: Binding affinity to human serum albumin assessed as equilibrium dissociation constant by SPR analysis; assay type: ADME
# [3] = target: T1, serum albumin (Homo sapiens, UniProt P02768); assay: Binding affinity to human serum albumin assessed as dissociation rate constant (Koff) by SPR analysis; assay type: ADME; details: read-out: K
# T1 sequence (P02768 whole entry): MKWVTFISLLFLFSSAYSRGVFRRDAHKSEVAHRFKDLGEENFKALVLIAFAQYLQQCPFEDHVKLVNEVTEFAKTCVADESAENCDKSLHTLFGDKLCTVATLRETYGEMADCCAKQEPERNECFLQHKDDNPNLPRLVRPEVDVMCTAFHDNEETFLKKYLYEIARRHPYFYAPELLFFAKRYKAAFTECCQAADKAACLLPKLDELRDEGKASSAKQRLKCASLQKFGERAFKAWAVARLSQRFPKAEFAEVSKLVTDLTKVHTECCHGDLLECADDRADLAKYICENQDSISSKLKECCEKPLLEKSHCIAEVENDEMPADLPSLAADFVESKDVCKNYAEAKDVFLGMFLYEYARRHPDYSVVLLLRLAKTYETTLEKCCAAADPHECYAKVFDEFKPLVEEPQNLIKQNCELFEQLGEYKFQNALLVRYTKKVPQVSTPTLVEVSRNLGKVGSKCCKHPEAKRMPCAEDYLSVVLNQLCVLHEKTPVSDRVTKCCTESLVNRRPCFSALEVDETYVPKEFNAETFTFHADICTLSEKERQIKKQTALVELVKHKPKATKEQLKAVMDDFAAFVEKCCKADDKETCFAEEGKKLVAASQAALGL
# [4] = target: T1, serum albumin; assay: Binding affinity to human serum albumin assessed as residence time by SPR analysis; assay type: ADME
# [5] = target: Cholinesterase (Equus caballus, UniProt P81908); assay: Inhibition of equine serum BuChE using butyrylthiocholine iodide as substrate preincubated for 20 mins followed by substrate addition and measured after 10 mins by DTNB based Ellman's method
# Sequence of Cholinesterase (P81908 whole entry): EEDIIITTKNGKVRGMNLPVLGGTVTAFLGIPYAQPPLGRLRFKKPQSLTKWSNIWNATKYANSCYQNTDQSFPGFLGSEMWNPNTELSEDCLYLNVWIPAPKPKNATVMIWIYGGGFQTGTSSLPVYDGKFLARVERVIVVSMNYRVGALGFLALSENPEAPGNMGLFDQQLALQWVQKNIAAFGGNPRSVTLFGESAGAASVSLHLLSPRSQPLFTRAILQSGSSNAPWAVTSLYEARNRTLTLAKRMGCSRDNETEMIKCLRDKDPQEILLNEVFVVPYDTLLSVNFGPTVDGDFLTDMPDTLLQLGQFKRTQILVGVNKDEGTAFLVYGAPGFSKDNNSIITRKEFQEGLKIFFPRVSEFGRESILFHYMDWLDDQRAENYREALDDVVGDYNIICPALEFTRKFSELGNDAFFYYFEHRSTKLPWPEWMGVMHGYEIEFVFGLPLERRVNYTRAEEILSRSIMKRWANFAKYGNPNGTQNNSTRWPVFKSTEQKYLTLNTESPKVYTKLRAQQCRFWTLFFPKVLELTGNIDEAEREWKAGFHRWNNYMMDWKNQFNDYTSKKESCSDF
# [6] = target: Acetylcholinesterase (Electrophorus electricus) (UniProt O42275); assay: Inhibition of electric eel AChE using acetylthiocholine iodide as substrate at 20 uM preincubated for 20 mins followed by substrate addition and measured after 10 mins by DTNB-reagent based Ellman's method relative to control; details: time 30.0 min
# Sequence of Acetylcholinesterase (Electrophorus electricus) (O42275 24-633 limits assumed): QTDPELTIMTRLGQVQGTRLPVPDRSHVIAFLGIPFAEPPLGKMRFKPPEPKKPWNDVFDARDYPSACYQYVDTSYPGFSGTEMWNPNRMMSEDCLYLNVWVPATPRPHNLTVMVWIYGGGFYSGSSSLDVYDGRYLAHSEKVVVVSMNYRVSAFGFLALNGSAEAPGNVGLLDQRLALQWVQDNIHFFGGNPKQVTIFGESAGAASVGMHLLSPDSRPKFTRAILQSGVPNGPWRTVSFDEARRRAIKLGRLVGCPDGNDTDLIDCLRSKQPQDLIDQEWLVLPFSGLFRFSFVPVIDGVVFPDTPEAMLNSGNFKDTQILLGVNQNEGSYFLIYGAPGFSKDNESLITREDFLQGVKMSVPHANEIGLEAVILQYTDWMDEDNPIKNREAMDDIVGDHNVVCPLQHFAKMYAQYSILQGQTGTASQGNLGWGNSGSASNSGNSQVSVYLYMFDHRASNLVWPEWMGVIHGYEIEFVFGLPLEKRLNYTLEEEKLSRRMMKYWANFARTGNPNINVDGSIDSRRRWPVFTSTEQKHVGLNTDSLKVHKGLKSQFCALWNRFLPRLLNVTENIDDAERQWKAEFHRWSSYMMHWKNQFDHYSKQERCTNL
# [7] = target: Cholinesterase (Equus caballus) (UniProt P81908); assay: Inhibition of equine serum BuChE using butyrylthiocholine iodide as substrate at 20 uM preincubated for 20 mins followed by substrate addition and measured after 10 mins by DTNB based Ellman's method relative to control; details: time 30.0 min
# Sequence of Cholinesterase (Equus caballus) (P81908 whole entry): as the sequence (P81908 whole entry) above
# [8] = system: SH-SY5Y; assay: Cytoprotective activity against H2O2-induced oxidative stress in human SH-SY5Y cells assessed as increase in cell viability at 100 uM incubated for 24 hrs by MTT assay; assay type: functional, cell-based
# [9] = target: Acetylcholinesterase (Electrophorus electricus, UniProt O42275); assay: Inhibition of electric eel AChE using acetylthiocholine iodide as substrate preincubated for 20 mins followed by substrate addition and measured after 10 mins by DTNB-reagent based Ellman's method
# Sequence of Acetylcholinesterase (O42275 whole entry): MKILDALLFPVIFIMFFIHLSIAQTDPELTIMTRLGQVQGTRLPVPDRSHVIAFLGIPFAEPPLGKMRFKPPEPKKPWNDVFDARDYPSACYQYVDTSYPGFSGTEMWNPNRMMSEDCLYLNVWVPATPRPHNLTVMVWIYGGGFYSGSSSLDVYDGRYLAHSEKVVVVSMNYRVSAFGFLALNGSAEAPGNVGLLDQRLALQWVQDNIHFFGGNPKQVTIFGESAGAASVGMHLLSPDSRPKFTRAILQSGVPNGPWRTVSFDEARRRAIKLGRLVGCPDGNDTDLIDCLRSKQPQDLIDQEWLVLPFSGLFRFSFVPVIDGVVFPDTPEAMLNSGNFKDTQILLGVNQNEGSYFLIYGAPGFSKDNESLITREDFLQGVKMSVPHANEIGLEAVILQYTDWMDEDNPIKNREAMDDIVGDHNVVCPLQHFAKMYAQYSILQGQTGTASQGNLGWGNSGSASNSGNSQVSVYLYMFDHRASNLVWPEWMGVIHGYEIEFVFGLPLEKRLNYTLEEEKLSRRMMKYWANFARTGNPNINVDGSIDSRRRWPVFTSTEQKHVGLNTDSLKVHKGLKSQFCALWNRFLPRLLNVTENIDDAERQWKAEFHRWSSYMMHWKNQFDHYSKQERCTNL
# [10] = target: Amyloid-beta precursor protein (Homo sapiens) (UniProt P05067); assay: Inhibition of self induced amyloid-beta (1 to 40) (unknown origin) aggregation at 100 uM incubated for 2 hrs by ThT fluorescence based spectrofluorimetric analysis relative to control
# Sequence of Amyloid-beta precursor protein (Homo sapiens) (P05067 whole entry): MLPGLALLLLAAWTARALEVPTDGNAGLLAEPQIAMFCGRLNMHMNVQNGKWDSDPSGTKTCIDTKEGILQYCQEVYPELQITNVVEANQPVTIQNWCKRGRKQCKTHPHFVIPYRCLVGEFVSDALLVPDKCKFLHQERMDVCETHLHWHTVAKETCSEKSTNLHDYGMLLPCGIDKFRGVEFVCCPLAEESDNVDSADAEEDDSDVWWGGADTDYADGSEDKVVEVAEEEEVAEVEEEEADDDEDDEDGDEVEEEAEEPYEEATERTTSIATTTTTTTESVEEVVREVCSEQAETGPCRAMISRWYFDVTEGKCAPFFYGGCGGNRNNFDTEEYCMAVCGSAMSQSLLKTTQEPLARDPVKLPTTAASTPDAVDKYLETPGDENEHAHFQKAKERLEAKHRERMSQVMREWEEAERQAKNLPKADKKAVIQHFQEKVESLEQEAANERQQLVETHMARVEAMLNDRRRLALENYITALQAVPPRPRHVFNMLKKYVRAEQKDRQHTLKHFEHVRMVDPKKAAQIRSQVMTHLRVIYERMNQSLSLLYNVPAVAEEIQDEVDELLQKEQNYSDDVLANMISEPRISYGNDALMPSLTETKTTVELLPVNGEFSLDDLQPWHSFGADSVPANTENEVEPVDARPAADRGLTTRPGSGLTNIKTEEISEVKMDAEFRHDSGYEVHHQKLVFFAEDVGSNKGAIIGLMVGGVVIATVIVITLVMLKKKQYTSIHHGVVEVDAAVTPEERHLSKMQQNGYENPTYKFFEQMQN
# Sequence of Albumin (P02768 whole entry): as the sequence (P02768 whole entry) above
Compound,IC50 [5] [µM],inhibition [6] [%],IC50 [9] [µM],also measured
O=C1NCCCc2c1c1ccccc1n2CCc1ccccc1,,,,inhibition [1]: < 40%; Kd [2]: 0.85 µM; koff [3]: 0.017 s⁻¹; residence time [4]: 1 min
O=C1NCCCc2c1c1ccccc1n2CCCCCN1CCN(Cc2cccnc2)CC1,4.92,37,,
O=C1NCCCc2c1c1ccccc1n2CCCCCN1CCN(Cc2ccncc2)CC1,1.92,2,,
O=C1NCCCc2c1c1ccccc1n2CCCCCN1CCN(c2ccc(F)cc2)CC1,1.78,28,,
CN1CCN(CCCCCn2c3c(c4ccccc42)C(=O)NCCC3)CC1,,20,,inhibition [7]: 20%
O=c1c(O)c(-c2ccc(O)c(O)c2)oc2cc(O)cc(O)c12,,,,Activity [8]: Active
O=C1NCCCc2c1c1ccccc1n2CCCCCCCN1CCN(Cc2ccccc2)CC1,0.396,,0.402,
O=C1NCCCc2c1c1ccccc1n2CCCCCCCN1CCN(c2ccccc2F)CC1,0.906,,4.94,
O=C1NCCCc2c1c1ccccc1n2CCCCN1CCN(CCc2ccccc2)CC1,0.528,36,,inhibition [10]: 21%
O=C1NCCCc2c1c1ccccc1n2CCCCCN1CCN(c2ccccc2)CC1,5.52,31,,
O=C1NCCCc2c1c1ccccc1n2CCCCCN1CCN(Cc2ccccc2)CC1,0.43,,1.83,inhibition [10]: 28%
CN1CCN(CCCCCCCn2c3c(c4ccccc42)C(=O)NCCC3)CC1,10,,15,

# From ChEMBL document CHEMBL5500348, “Novel 6-alkyl-bridged 4-arylalkylpiperazin-1-yl derivatives of azepino[4,3-b]indol-1(2H)-one as potent BChE-selective inhibitors showing protective effects against neurodegenerative insults” (Eur J Med Chem, 2024)
